Reference: patent publication US11912718B2, “Solid forms of a thienopyrimidinedione ACC inhibitor and methods for production thereof” (Gilead Apollo, LLC, priority 2016, dated 2024)

How the values were obtained:
[1] = Study A: single oral dose pharmacokinetics in healthy subjects; assay type: in vivo, human; conditions: for AUC(0-t) / Tmax / AUC(0-inf) / Cmax / half-life: human, plasma, fasted; for AUC(0-t): po; for AUC(0-t) / AUC(0-inf) / Cmax / half-life: mean ± SD; for Tmax: Mean (Min, Max)
Method: Study A evaluated the safety and tolerability of 30, 80, 200, 500, 800, and 1000 mg in the fasted state and 200 mg following a high fat meal (fed state) to cohorts of 8 healthy subjects (6 active and 2 placebo control per group).
Table 12 summarizes PK parameters (mean) under fasted conditions of Study A. The reported factors may vary up to about 2%.

[2] = Study B: multiple oral dose pharmacokinetics, 10 days; assay type: in vivo, human; conditions: for AUC(0-inf) / Cmax / half-life / Tmax / AUC(0-t): human, in vivo, oral
Method: Study B (five (5) cohorts of 8 subjects (6 active and 2 placebo)) evaluated 50 mg twice daily (BID) (100 mg daily), 100 mg once daily (QD) (100 mg daily), 100 mg BID (200 mg daily), 200 mg QD (200 mg daily), or 150 mg QD (150 mg daily), or matching placebo. Subjects received multiple oral doses of Compound 1 or placebo for 9 consecutive days, with a single oral dose of Compound 1 or placebo on the morning of Day 10. Doses were administered approximately 30 minutes after meals.
Table 13 summarizes PK parameters of Study B after 10 days. The reported factors may vary up to about 2%.

[3] = 100 mg, 100 mg BID, Day 1, value available for one subject

## COc1ccccc1[C@H](Cn1c(=O)n(C(C)(C)C(=O)O)c(=O)c2c(C)c(-c3ncco3)sc21)OC1CCOCC1 [Compound 1, (R)-2-(1-(2-(2-methoxyphenyl)-2-((tetrahydro-2H-pyran-4-yl)oxy)ethyl)-5-methyl-6-(oxazol-2-yl)-2,4-dioxo-1,2-dihydrothieno[2,3-d]pyrimidin-3(4H)-yl)-2-methylpropanoic acid]
[1]; 200 mg, fed (high fat meal) versus fasted
  maximum plasma exposure (Cmax) lower under fed compared to fasted conditions: approximately 68%
[1]; 200 mg, fed and fasted conditions
  mean t1/2, CL/F, Vz/F and median tmax, fed versus fasted: comparable
[1]; 30 mg, single oral dose 30 mg, read-out: AUC0-t
  AUC(0-t): 176 ± 104 ng·h/mL
[1]; 80 mg, single oral dose 80 mg, read-out: AUC0-12
  AUC(0-t): 395 ± 198 ng·h/mL
[1]; 80 mg, single oral dose 80 mg, read-out: AUC0-t
  AUC(0-t): 363 ± 215 ng·h/mL
[1]; 200 mg, single oral dose 200 mg, read-out: AUC0-12
  AUC(0-t): 1000 ± 545 ng·h/mL
[1]; 200 mg, single oral dose 200 mg, read-out: AUC0-t
  AUC(0-t): 1210 ± 536 ng·h/mL
[1]; 500 mg, single oral dose 500 mg, read-out: AUC0-12
  AUC(0-t): 1240 ± 547 ng·h/mL
[1]; 500 mg, single oral dose 500 mg, read-out: AUC0-t
  AUC(0-t): 2930 ± 2440 ng·h/mL
[1]; 800 mg, single oral dose 800 mg, read-out: AUC0-t
  AUC(0-t): 6420 ± 3180 ng·h/mL
[1]; 1000 mg, single oral dose 1000 mg, read-out: AUC0-t
  AUC(0-t): 17400 ± 8400 ng·h/mL
[1]; single oral dose 30 mg
  Tmax: 1.3 h
  AUC(0-inf): 179 ± 115 ng·h/mL
  Cmax: 80 ± 66 ng/mL
  half-life: 4.5 ± 1.6 h
[1]; single oral dose 80 mg
  Tmax: 1.8 h
  AUC(0-inf): 402 ± 225 ng·h/mL
  Cmax: 101 ± 48 ng/mL
  half-life: 7 ± 2.8 h
[1]; single oral dose 200 mg
  Tmax: 1.9 h
  AUC(0-inf): 1250 ± 616 ng·h/mL
  Cmax: 416 ± 22 ng/mL
  half-life: 12 ± 1.4 h
[1]; single oral dose 500 mg
  Tmax: 1.9 h
  AUC(0-inf): 2960 ± 2460 ng·h/mL
  Cmax: 1110 ± 1150 ng/mL
  half-life: 10.2 ± 2.1 h
[1]; single oral dose 800 mg
  Tmax: 2.1 h
  AUC(0-inf): 6460 ± 3190 ng·h/mL
  Cmax: 2570 ± 1880 ng/mL
  half-life: 8.2 ± 3.3 h
[1]; single oral dose 1000 mg
  Tmax: 2.4 h
  AUC(0-inf): 17500 ± 8410 ng·h/mL
  Cmax: 8380 ± 3210 ng/mL
  half-life: 9.5 ± 2.6 h
[2]; 50 mg, 50 mg BID, Day 1
  AUC(0-inf): 178 ± 41 ng·h/mL
  Cmax: 41 ± 14 ng/mL
  half-life: 3.5 ± 1.6 h
[2]; 50 mg, 50 mg BID, Day 1, Mean (Min, Max)
  Tmax: 2.4 h
[2]; 50 mg, 50 mg BID, Day 1, read-out: AUC0-12
  AUC(0-t): 143 ± 29 ng·h/mL
[2]; 50 mg, 50 mg BID, Day 1, read-out: AUC0-t
  AUC(0-t): 143 ± 29 ng·h/mL
[2]; 50 mg, 50 mg BID, Day 10
  half-life: 10.3 ± 6.7 h
[2]; 50 mg, 50 mg BID, Day 10, read-out: AUC0-t
  AUC(0-t): 403 ± 104 ng·h/mL
[2]; 50 mg, 50 mg BID, Day 10 steady state
  Cmax: 49 ± 15 ng/mL
[2]; 50 mg, 50 mg BID, Day 10 steady state, Mean (Min, Max)
  Tmax: 4.5 h
[2]; 100 mg, 100 mg BID, Day 1
  Cmax: 61.6 ± 15 ng/mL
[2]; 100 mg, 100 mg BID, Day 1, Mean (Min, Max)
  Tmax: 5.2 h
[2]; 100 mg, 100 mg BID, Day 1, read-out: AUC0-12
  AUC(0-t): 345 ± 78 ng·h/mL
[2]; 100 mg, 100 mg BID, Day 1, read-out: AUC0-t
  AUC(0-t): 345 ± 77 ng·h/mL
[2]; [3]
  AUC(0-inf): 671 ng·h/mL
  half-life: 5.6 h
[2]; 100 mg, 100 mg BID, Day 10
  half-life: 6.8 ± 1.6 h
[2]; 100 mg, 100 mg BID, Day 10, read-out: AUC0-t
  AUC(0-t): 1120 ± 362 ng·h/mL
[2]; 100 mg, 100 mg BID, Day 10 steady state
  Cmax: 121 ± 56 ng/mL
[2]; 100 mg, 100 mg BID, Day 10 steady state, Mean (Min, Max)
  Tmax: 5.2 h
[2]; 100 mg, 100 mg QD, Day 1
  AUC(0-inf): 278 ± 110 ng·h/mL
  Cmax: 65 ± 32 ng/mL
  half-life: 4.3 ± 0.7 h
[2]; 100 mg, 100 mg QD, Day 1, read-out: AUC0-12
  AUC(0-t): 234 ± 86 ng·h/mL
[2]; 100 mg, 100 mg QD, Day 1, read-out: AUC0-t
  AUC(0-t): 268 ± 96 ng·h/mL
[2]; 100 mg, 100 mg QD, Day 10
  half-life: 7.9 ± 4.5 h
[2]; 100 mg, 100 mg QD, Day 10, read-out: AUC0-12
  AUC(0-t): 285 ± 115 ng·h/mL
[2]; 100 mg, 100 mg QD, Day 10, read-out: AUC0-t
  AUC(0-t): 400 ± 181 ng·h/mL
[2]; 100 mg, 100 mg QD, Day 10 steady state
  Cmax: 54 ± 22 ng/mL
[2]; 100 mg, 100 mg QD, Day 10 steady state, Mean (Min, Max)
  Tmax: 4.5 h
[2]; 150 mg, 150 mg QD, Day 1
  AUC(0-inf): 587 ± 254 ng·h/mL
  Cmax: 94 ± 40 ng/mL
  half-life: 3.9 ± 1.1 h
[2]; 150 mg, 150 mg QD, Day 1, Mean (Min, Max)
  Tmax: 3.3 h
[2]; 150 mg, 150 mg QD, Day 1, read-out: AUC0-12
  AUC(0-t): 489 ± 218 ng·h/mL
[2]; 150 mg, 150 mg QD, Day 1, read-out: AUC0-t
  AUC(0-t): 572 ± 247 ng·h/mL
[2]; 150 mg, 150 mg QD, Day 10
  half-life: 6.6 ± 2.8 h
[2]; 150 mg, 150 mg QD, Day 10, read-out: AUC0-12
  AUC(0-t): 637 ± 246 ng·h/mL
[2]; 150 mg, 150 mg QD, Day 10, read-out: AUC0-t
  AUC(0-t): 933 ± 424 ng·h/mL
[2]; 150 mg, 150 mg QD, Day 10 steady state
  Cmax: 111 ± 52 ng/mL
[2]; 150 mg, 150 mg QD, Day 10 steady state, Mean (Min, Max)
  Tmax: 6.5 h
[2]; 200 mg, 200 mg QD, Day 1
  AUC(0-inf): 979 ± 286 ng·h/mL
  Cmax: 152 ± 68 ng/mL
  half-life: 5.9 ± 3.6 h
[2]; 200 mg, 200 mg QD, Day 1, Mean (Min, Max)
  Tmax: 4.7 h
[2]; 200 mg, 200 mg QD, Day 1, read-out: AUC0-12
  AUC(0-t): 707 ± 191 ng·h/mL
[2]; 200 mg, 200 mg QD, Day 1, read-out: AUC0-t
  AUC(0-t): 868 ± 220 ng·h/mL
[2]; 200 mg, 200 mg QD, Day 10
  half-life: 5.9 ± 1 h
[2]; 200 mg, 200 mg QD, Day 10, read-out: AUC0-12
  AUC(0-t): 1220 ± 362 ng·h/mL
[2]; 200 mg, 200 mg QD, Day 10, read-out: AUC0-t
  AUC(0-t): 2050 ± 819 ng·h/mL
[2]; 200 mg, 200 mg QD, Day 10 steady state
  Cmax: 198 ± 87 ng/mL
[2]; 200 mg, 200 mg QD, Day 10 steady state, Mean (Min, Max)
  Tmax: 3.7 h
[2]; multiple dosing, all regimens
  change of maximal exposure (Cmax) from Day 1 to Day 10: generally increased
  increase of overall exposure (AUCt) on Day 10 compared to Day 1: 1.5-3.0 fold
  range of mean t1/2 independent of dose or regimen on each study day: ≤ 2 fold
